In PMC2287205 (Analytical and Bioanalytical Chemistry, 2008):

Assays:
ERα = ERα (Homo sapiens, UniProt P03372); format: binding; settings: mixture of five estrogenic compounds separated by gradient HPLC (Fig. 7)
[1] = Microsomal incubation with PB-induced rat liver microsomes; settings: 100 μM zearalenone, 120 min, 37 °C

Sequence of ERα (P03372 311-547): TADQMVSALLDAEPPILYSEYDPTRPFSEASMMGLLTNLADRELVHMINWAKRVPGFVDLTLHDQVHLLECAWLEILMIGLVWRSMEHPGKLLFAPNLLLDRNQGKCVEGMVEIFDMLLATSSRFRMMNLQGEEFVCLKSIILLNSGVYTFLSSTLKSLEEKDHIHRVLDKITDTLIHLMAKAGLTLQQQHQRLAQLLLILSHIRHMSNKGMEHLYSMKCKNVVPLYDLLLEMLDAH

Row | SMILES | ERα bioaffinity detected in HRS ERα FP trace (ERα) | Metabolism by rat liver microsomes [1]
1 | O=c1oc2cc(O)ccc2cc1-c1ccc(O)cc1 [coumarol, 7-Hydroxy-3-p-hydroxyphenylcoumarine] | possible to detect the ERα bioaffinities | –
2 | C[C@H]1CCCC(=O)CCC/C=C/c2cc(O)cc(O)c2C(=O)O1 [zearalenone] | possible to detect the ERα bioaffinities | metabolized by rat liver microsomes into at least three major metabolites
